Read-outs that look alike come from different tables or passages of the source. Peptide text beside a SMILES is read from it. * marks the point of attachment. Hydrocinnamoyl = O=C(CCc1ccccc1)*

Results on five compounds are retold here after patent US5886146A, “Inhibitors of thrombosis” (Corvas International, Inc., priority 1995, dated 1999).

For one test, the target named is human α-thrombin (Homo sapiens, UniProt P00734). The test is described as follows: Thrombin assay, chromogenic substrate Pefachrome t-PA. As to conditions: purified human enzyme 0.25 nM, 30 minute incubation, substrate 300 μM, HBSA pH 7.5. The test is classed as biochemical. The procedure: The buffer used for all assays was HBSA (10 mM HEPES, pH 7.5, 150 mM sodium chloride, 0.1% bovine serum albumin). […] Following a 30 minute incubation at ambient temperature, 50 μL of the substrate at the concentrations specified below, was added to the wells yielding a final total volume of 200 μL.
Thrombin catalytic activity was determined using the chromogenic substrate Pefachrome t-PA (CH3 SO2 -D-hexahydrotyrosine-glycyl-L-arginine-p-nitroaniline, obtained from Pentapharm Ltd.).

The target of a further test is T1, Human factor Xa (Homo sapiens, UniProt P00742).
T1 construct: Human factor Xa was prepared from purified human factor X obtained from Enzyme Research Laboratories; purchased Enzyme Research Laboratories
T1 sequence (P00742 235-488 limits assumed): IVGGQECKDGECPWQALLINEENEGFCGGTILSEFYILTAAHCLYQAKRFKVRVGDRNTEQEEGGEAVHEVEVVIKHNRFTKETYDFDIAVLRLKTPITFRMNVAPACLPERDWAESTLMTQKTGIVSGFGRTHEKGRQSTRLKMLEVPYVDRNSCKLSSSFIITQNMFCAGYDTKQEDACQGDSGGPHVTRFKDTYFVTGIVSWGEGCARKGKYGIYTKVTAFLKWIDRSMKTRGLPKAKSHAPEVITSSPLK
T1 sequence (P00742 41-179 partner limits assumed): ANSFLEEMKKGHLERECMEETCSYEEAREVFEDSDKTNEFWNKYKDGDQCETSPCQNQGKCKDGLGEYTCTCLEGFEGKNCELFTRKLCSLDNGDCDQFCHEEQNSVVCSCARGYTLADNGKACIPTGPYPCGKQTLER
In words: Factor Xa assay, chromogenic substrate S2765. Particulars: purified human enzyme 0.5 nM, 30 minute incubation, substrate 250 μM, HBSA pH 7.5. The format is biochemical. The procedure:
The buffer used for all assays was HBSA (10 mM HEPES, pH 7.5, 150 mM sodium chloride, 0.1% bovine serum albumin). […] Following a 30 minute incubation at ambient temperature, 50 μL of the substrate at the concentrations specified below, was added to the wells yielding a final total volume of 200 μL. The initial velocity of chromogenic substrate hydrolysis was measured by the change in absorbance at 405 nm using a Thermo Max® Kinetic Microplate Reader over a 5 minute period in which less than 5% of the added substrate was utilized.
Factor Xa catalytic activity was determined using the substrate, S2765 (N-α-benzyloxycarbonyl-D-argininyl-L-glycyl-L-arginine-p-nitroanilide dihydrochloride) which was obtained from Kabi Diagnostica. […] Human factor Xa was prepared from purified human factor X obtained from Enzyme Research Laboratories according to the method described by Bock, P. E. et al., Archives of Biochem. Biophys. 273: 375 (1989). The enzyme was diluted into HBSA prior to the assay in which the final concentration was 0.5 nM.

Another test addresses human plasmin (Homo sapiens, UniProt P00747). In words: Plasmin assay, chromogenic substrate S-2251. The format is biochemical. As to conditions: purified human enzyme 1.0 nM, 30 minute incubation, substrate 300 μM, HBSA pH 7.5.
Test [1] concerns FeCl3-induced platelet-dependent arterial thrombosis. The format is in vivo, rat. As to conditions: for Clot Size: mean ± S.E.M. An excerpt:
Res., 60: 269-280 (1990). […] Res., 60: 269-280 (1990). […] The animals were then euthanized.

human plasmin, sequence (P00747 581-810 limits assumed): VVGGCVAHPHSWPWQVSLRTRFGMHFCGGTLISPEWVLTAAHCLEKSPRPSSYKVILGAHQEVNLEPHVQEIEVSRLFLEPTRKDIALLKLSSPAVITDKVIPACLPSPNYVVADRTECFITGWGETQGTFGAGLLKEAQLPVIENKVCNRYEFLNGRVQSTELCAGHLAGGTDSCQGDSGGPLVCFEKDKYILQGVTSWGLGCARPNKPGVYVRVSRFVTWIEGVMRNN
human plasmin, sequence (P00747 97-580 partner limits assumed): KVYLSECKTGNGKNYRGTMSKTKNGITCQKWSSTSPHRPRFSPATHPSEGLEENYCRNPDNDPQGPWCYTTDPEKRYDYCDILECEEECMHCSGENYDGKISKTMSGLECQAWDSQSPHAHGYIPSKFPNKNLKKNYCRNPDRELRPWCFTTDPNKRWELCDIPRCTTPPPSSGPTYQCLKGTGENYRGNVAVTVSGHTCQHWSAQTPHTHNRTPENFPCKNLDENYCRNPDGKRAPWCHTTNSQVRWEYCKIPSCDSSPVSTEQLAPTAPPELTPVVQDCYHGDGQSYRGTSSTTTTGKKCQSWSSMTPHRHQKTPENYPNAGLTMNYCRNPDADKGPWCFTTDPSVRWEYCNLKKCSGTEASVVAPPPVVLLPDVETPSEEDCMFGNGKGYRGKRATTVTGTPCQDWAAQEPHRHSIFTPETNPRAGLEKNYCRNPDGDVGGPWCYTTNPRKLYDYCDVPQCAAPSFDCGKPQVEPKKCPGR
Experimental for human plasmin: Plasmin catalytic activity was determined using the chromogenic substrate, S-2251 [D-valyl-L-leucyl-L-lysine-p-nitroanilide dihydrochloride], which was obtained from Kabi Diagnostica.

Take `N=C(N)NCCC[C@@H](C=O)NC(=O)[C@@H]1CCCN1C(=O)[C@H](CC(=O)O)NC(=O)CCC1CCCCC1` [ChxPA-Asp-Pro-Arg-al, N-(3-cyclohexanepropionyl)-L-aspartyl-L-prolyl-L-argininal]: the IC50 is 41 nM against human α-thrombin and 24 nM at Human factor Xa.
On to `CC(C)CCC(=O)N[C@@H](CC(=O)O)C(=O)N1CCC[C@H]1C(=O)N[C@H](C=O)CCCNC(=N)N` [4MeV-Asp-Pro-Arg-al, N-(4-methylpentanoyl)-L-aspartyl-L-prolyl-L-argininal], for which the IC50 against human α-thrombin was found to be 139 nM; at Human factor Xa, 74 nM.
On to `CC(C)CCC(=O)NC(Cc1nnn[nH]1)C(=O)N1CCC[C@H]1C(=O)N[C@H](C=O)CCCNC(=N)N` (stereo partly drawn) [4MeV-Ala(Tzl)-Pro-Arg-al, 3-tetrazolyl-2-(4-methylvaleroylamido) propionyl-L-prolyl-L-argininal], for which the IC50 at human plasmin was found to be 500 nM. This counts as sub-micromolar.
As to `N=C(N)NCCC[C@@H](C=O)NC(=O)[C@@H]1CCCN1C(=O)[C@H](CC(=O)O)NC(=O)CCc1ccccc1` [HCA-Asp-Pro-Arg-al, N-(3-phenylpropionyl)-L-aspartyl-L-prolyl-L-argininal] (Hydrocinnamoyl-Asp-Pro-Arg-aldehyde), the values for the IC50 against human α-thrombin and against Human factor Xa were 92 nM and 52 nM, respectively. The “Clot Size” value in test [1] (Group 1, 25 μg/kg/min i.v. infusion) amounted to 48.38 ± 24.71%; in test [1] (Group 2, 50 μg/kg/min i.v. infusion), 22.38 ± 21.0%; in test [1] (Group 3, 100 μg/kg/min i.v. infusion) it was 3.38 ± 5.44%. In addition, in test [1] (rat FeCl3 model, i.v. infusion), the “Efficacy as an antithrombotic agent (in words)” value was “reduction in the incidence of occlusion and in clot size”.
Consider `CCCC(CCC)C(=O)N[C@@H](CC(=O)O)C(=O)N1CCC[C@H]1C(=O)N[C@H](C=O)CCCNC(=N)N` [2PrPent-Asp-Pro-Arg-al, N-(2-propylpentanoyl)-L-aspartyl-L-prolyl-L-argininal], for which the values for the IC50 on human α-thrombin and against Human factor Xa were 6.2 nM and 241 nM, respectively.

By IC50 is commonly meant the concentration at which inhibition is half-maximal. High values mean lower potency, low ones higher potency.
